In brackets after ≈: the same amount, converted by molar mass. Blank lines part the entries; values can stand above or below the molecule they belong to. Square brackets hold non-standard residues; d marks the D form. Peptide text beside a SMILES is read from it. ξ: configuration not given here. ξαMeGly(pent-4-enyl) = C=CCCCC(C)(N)C(=O)O
Legend:
[1] = tested on: S. aureus; assay: Resistance development assay, sequential passaging; format: cell-based, Staphylococcus aureus; conditions: serial passage at sub-MIC
Method: (§1) Serial passage and MIC determination were used to explore whether the bacteria developed drug resistance. On the first day, the MICs of the peptides were determined as described above. The next day, the bacterial suspension of sub-MIC concentration was cultivated to the mid-log phase. The MICs of the peptides were detected again, and this process was repeated for 20 days. The MICs of the antibiotics, including amoxicillin (AML), ceftazidime (CAZ) and imipenem, were also determined as controls.

[2] = tested on: MRSA; set-up: method as in PMID 32590058; conditions: cited from earlier work
[3] = tested on: P. aeruginosa; assay: Resistance development assay, sequential passaging; format: cell-based, Pseudomonas aeruginosa; conditions: serial passage at sub-MIC, 20 passages
Method: as §1

[4] = tested on: E. coli; assay: Resistance development assay, sequential passaging; format: cell-based; conditions: serial passage at sub-MIC, 20 passages
Method: as §1

[5] = tested on: A. baumannii 5444; format: cell-based, Acinetobacter baumannii; conditions: 5444, 18 h
Method: (§2) The minimum inhibitory concentration (MIC) of the Feleucin-K3 analogs was tested by the broth microdilution method. Sensitive bacteria and drug-resistant bacteria were diluted to 1 × 10^6 CFU/mL, according to the McFarland standards. Bacterial suspension and peptide solutions (8–128 μg/mL) were incubated at 37 °C for 18 h. The minimum concentration without obvious bacterial growth was the MIC of the peptides. The stability of the analogs in a physiological salt environment was also investigated. In brief, salt powder (450-mM NaCl) was dissolved in deionized water, and the following investigational steps were the same as those described before. The above steps were repeated several times, until the same value was obtained three times.

[6] = tested on: A. baumannii 91199; format: cell-based, Acinetobacter baumannii; conditions: 91199, 18 h
Method: as §2

[7] = tested on: A. baumannii 9840; format: cell-based, Acinetobacter baumannii; conditions: 9840, 18 h
Method: as §2

[8] = tested on: A. baumannii 822144; format: cell-based, Acinetobacter baumannii; conditions: 822144, 18 h
Method: as §2

[9] = tested on: A. baumannii 91869; format: cell-based, Acinetobacter baumannii; conditions: 91869, 18 h
Method: as §2

[10] = tested on: A. baumannii 91152; format: cell-based, Acinetobacter baumannii; conditions: 91152, 18 h
Method: as §2

[11] = tested on: A. baumannii 91944; format: cell-based, Acinetobacter baumannii; conditions: 91944, 18 h
Method: as §2

[12] = tested on: A. baumannii 9896; format: cell-based, Acinetobacter baumannii; conditions: 9896, 18 h
Method: as §2

[13] = tested on: A. baumannii 9234; format: cell-based, Acinetobacter baumannii; conditions: 9234, 18 h
Method: as §2

[14] = tested on: A. baumannii 9828; format: cell-based, Acinetobacter baumannii; conditions: 9828, 18 h
Method: as §2

[15] = tested on: A. baumannii 92359; format: cell-based, Acinetobacter baumannii; conditions: 92359, 18 h
Method: as §2

[16] = tested on: A. baumannii 91810; format: cell-based, Acinetobacter baumannii; conditions: 91810, 18 h
Method: as §2

[17] = tested on: A. baumannii 8309; format: cell-based, Acinetobacter baumannii; conditions: 8309, 18 h
Method: as §2

[18] = tested on: A. baumannii ATCC 19606; format: cell-based, Acinetobacter baumannii; conditions: ATCC 19606, 18 h
Method: as §2

[19] = tested on: A. baumannii 97830; format: cell-based, Acinetobacter baumannii; conditions: 97830, 18 h
Method: as §2

[20] = tested on: A. baumannii 9336; format: cell-based, Acinetobacter baumannii; conditions: 9336, 18 h
Method: as §2

[21] = tested on: A. baumannii 9331; format: cell-based, Acinetobacter baumannii; conditions: 9331, 18 h
Method: as §2

[22] = tested on: A. baumannii 91105; format: cell-based, Acinetobacter baumannii; conditions: 91105, 18 h
Method: as §2

[23] = tested on: A. baumannii 98110; format: cell-based, Acinetobacter baumannii; conditions: 98110, 18 h
Method: as §2

[24] = tested on: A. baumannii 9236; format: cell-based, Acinetobacter baumannii; conditions: 9236, 18 h
Method: as §2

[25] = tested on: A. baumannii 51243; format: cell-based, Acinetobacter baumannii; conditions: 51243, 18 h
Method: as §2

[26] = tested on: MRSA 71; format: cell-based, Staphylococcus aureus; conditions: 71, 18 h
Method: as §2

[27] = tested on: MRSA 52; format: cell-based, Staphylococcus aureus; conditions: 52, 18 h
Method: as §2

[28] = tested on: MRSA 54; format: cell-based, Staphylococcus aureus; conditions: 54, 18 h
Method: as §2

[29] = tested on: S. aureus 725; format: cell-based, Staphylococcus aureus; conditions: 725, 18 h
Method: as §2

[30] = tested on: MRSA 23; format: cell-based, Staphylococcus aureus; conditions: 23, 18 h
Method: as §2

[31] = tested on: MRSA 74; format: cell-based, Staphylococcus aureus; conditions: 74, 18 h
Method: as §2

[32] = tested on: S. aureus 794; format: cell-based, Staphylococcus aureus; conditions: 794, 18 h
Method: as §2

[33] = tested on: MRSA 48; format: cell-based, Staphylococcus aureus; conditions: 48, 18 h
Method: as §2

[34] = tested on: MRSA 75; format: cell-based, Staphylococcus aureus; conditions: 75, 18 h
Method: as §2

[35] = tested on: MRSA 51; format: cell-based, Staphylococcus aureus; conditions: 51, 18 h
Method: as §2

[36] = tested on: S. aureus ATCC 25923; format: cell-based, Staphylococcus aureus; conditions: ATCC 25923, 18 h
Method: as §2

[37] = tested on: MRSA 936; format: cell-based, Staphylococcus aureus; conditions: 936, 18 h
Method: as §2

[38] = tested on: MRSA ATCC 33591; format: cell-based, Staphylococcus aureus; conditions: ATCC 33591, 18 h
Method: as §2

[39] = tested on: MRSA 113; format: cell-based, Staphylococcus aureus; conditions: 113, 18 h
Method: as §2

[40] = tested on: E. coli ATCC 25922; format: cell-based; conditions: ATCC 25922, 18 h
Method: as §2

[41] = tested on: P. aeruginosa ATCC 27853; format: cell-based, Pseudomonas aeruginosa; conditions: ATCC 27853, 18 h
Method: as §2

SMILES: CC1(C)S[C@@H]2[C@H](NC(=O)[C@H](N)c3ccc(O)cc3)C(=O)N2[C@H]1C(=O)O [AML, amoxicillin]
- maximum fold increase of MIC, S. aureus ([1]; 20 passages): ≤ 1024 fold
- passage at which resistant mutants were produced ([1]; strain taken as S. aureus): 5 passage
- MIC against MRSA [2]: up to 128 µg/mL

SMILES: CC(C)(O/N=C(\C(=O)N[C@@H]1C(=O)N2C(C(=O)[O-])=C(C[n+]3ccccc3)CS[C@H]12)c1csc(N)n1)C(=O)O [CAZ, ceftazidime]
- fold increase of MIC, P. aeruginosa [3]: 32 fold
- fold increase of MIC, E. coli [4]: 16 fold

- MIC, A. baumannii 5444 [5]: 8 µg/mL (≈ 7.01 µM)
- MIC, A. baumannii 91199 [6]: 8 µg/mL (≈ 7.01 µM)
- MIC, A. baumannii 9840 [7]: 8 µg/mL (≈ 7.01 µM)
- MIC, A. baumannii 822144 [8]: 8 µg/mL (≈ 7.01 µM)
- MIC, A. baumannii 91869 [9]: 8 µg/mL (≈ 7.01 µM)
- MIC, A. baumannii 91152 [10]: 8 µg/mL (≈ 7.01 µM)
- MIC, A. baumannii 91944 [11]: 8 µg/mL (≈ 7.01 µM)
- MIC, A. baumannii 9896 [12]: 8 µg/mL (≈ 7.01 µM)
- MIC, A. baumannii 9234 [13]: 8 µg/mL (≈ 7.01 µM)
- MIC, A. baumannii 9828 [14]: 8 µg/mL (≈ 7.01 µM)
- MIC, A. baumannii 92359 [15]: 4 µg/mL (≈ 3.51 µM)
- MIC, A. baumannii 91810 [16]: 8 µg/mL (≈ 7.01 µM)
- MIC, A. baumannii 8309 [17]: 8 µg/mL (≈ 7.01 µM)
- MIC, A. baumannii ATCC 19606 [18]: 8 µg/mL (≈ 7.01 µM)
- MIC, A. baumannii 97830 [19]: 8 µg/mL (≈ 7.01 µM)
- MIC, A. baumannii 9336 [20]: 8 µg/mL (≈ 7.01 µM)
- MIC, A. baumannii 9331 [21]: 8 µg/mL (≈ 7.01 µM)
- MIC, A. baumannii 91105 [22]: 8 µg/mL (≈ 7.01 µM)
- MIC, A. baumannii 98110 [23]: 8 µg/mL (≈ 7.01 µM)
- MIC, A. baumannii 9236 [24]: 8 µg/mL (≈ 7.01 µM)
- MIC, A. baumannii 51243 [25]: 8 µg/mL (≈ 7.01 µM)
- MIC, MRSA 71 [26]: 4 µg/mL (≈ 3.51 µM)
- MIC, MRSA 52 [27]: 4 µg/mL (≈ 3.51 µM)
- MIC, MRSA 54 [28]: 4 µg/mL (≈ 3.51 µM)
- MIC, S. aureus 725 [29]: 4 µg/mL (≈ 3.51 µM)
- MIC, MRSA 23 [30]: 4 µg/mL (≈ 3.51 µM)
- MIC, MRSA 74 [31]: 8 µg/mL (≈ 7.01 µM)
- MIC, S. aureus 794 [32]: 8 µg/mL (≈ 7.01 µM)
- MIC, MRSA 48 [33]: 4 µg/mL (≈ 3.51 µM)
- MIC, MRSA 75 [34]: 4 µg/mL (≈ 3.51 µM)
- MIC, MRSA 51 [35]: 4 µg/mL (≈ 3.51 µM)
- MIC, S. aureus ATCC 25923 [36]: 4 µg/mL (≈ 3.51 µM)
- MIC, MRSA 936 [37]: 4 µg/mL (≈ 3.51 µM)
- MIC, MRSA ATCC 33591 [38]: 4 µg/mL (≈ 3.51 µM)
- MIC, MRSA 113 [39]: 4 µg/mL (≈ 3.51 µM)
- MIC, E. coli ATCC 25922 [40]: 8 µg/mL (≈ 7.01 µM)
- MIC, P. aeruginosa ATCC 27853 [41]: 8 µg/mL (≈ 7.01 µM)
SMILES: C=CCCCC(C)(NC(=O)[C@H](CCCCN)NC(=O)[C@H](CCCCN)NC(=O)[C@H](CC(C)C)NC(=O)[C@H](CC(C)C)NC(=O)[C@H](CCCCN)NC(=O)[C@H](CC(C)C)NC(=O)[C@@H](N)Cc1ccccc1)C(=O)N[C@@H](CC(C)C)C(N)=O (stereo partly drawn) [Feleucin-K69] (H-FLKLLKK[ξαMeGly(pent-4-enyl)]L-NH2)
